Results published in ChEMBL document CHEMBL5113375, “Development of Mcl-1 inhibitors for cancer therapy” (Eur J Med Chem, 2021).

Experiments:
[1] = Inhibition of Mcl-1 (172 - 327 residues)/Noxa (unknown origin) by fluorescence polarization assay; design: species or system Homo sapiens
[2] = biological target: Induced myeloid leukemia cell differentiation protein Mcl-1/Bcl-2-like protein 11 (Homo sapiens, UniProt Q07820); assay: Inhibition of Mcl-1/Bim (unknown origin) by ELISA method; format: protein assay
[3] = biological target: BCL2/BCL2L11 (Homo sapiens, UniProt P10415); assay: Inhibition of Bcl-2/Bim (unknown origin) by ELISA method; format: protein assay
[4] = biological target: MCL1-BAK1 complex (Homo sapiens, UniProt Q07820); assay: Binding affinity to Mcl-1/Bak (unknown origin) assessed as inhibition constant by fluorescence polarization assay; format: protein-complex assay
[5] = biological target: Induced myeloid leukemia cell differentiation protein Mcl-1/BH3-interacting domain death agonist (Homo sapiens, UniProt Q07820); assay: Binding affinity to Mcl-1/Bid (unknown origin) assessed as inhibition constant by fluorescence polarization assay; format: protein assay
[6] = biological target: Bcl-xL/Bcl-2-like protein 11 (Homo sapiens, UniProt Q07817); assay: Binding affinity to Bcl-xL/Bim (unknown origin) assessed as inhibition constant by fluorescence polarization assay; format: protein assay
[7] = biological target: BCL2/BID (Homo sapiens, UniProt P10415); assay: Binding affinity to Bcl-2 /Bid (unknown origin) assessed as inhibition constant by fluorescence polarization assay; format: protein assay
[8] = Cytotoxicity against human MOLP8 cells by caspase-3/7 activation; format: functional, cell-based; details: MOLP-8
[9] = biological target: Induced myeloid leukemia cell differentiation protein Mcl-1 (Homo sapiens, UniProt Q07820); assay: Binding affinity to Mcl-1 (unknown origin) assessed as inhibition constant by fluorescence polarization assay
Induced myeloid leukemia cell differentiation protein Mcl-1, sequence (Q07820 whole entry): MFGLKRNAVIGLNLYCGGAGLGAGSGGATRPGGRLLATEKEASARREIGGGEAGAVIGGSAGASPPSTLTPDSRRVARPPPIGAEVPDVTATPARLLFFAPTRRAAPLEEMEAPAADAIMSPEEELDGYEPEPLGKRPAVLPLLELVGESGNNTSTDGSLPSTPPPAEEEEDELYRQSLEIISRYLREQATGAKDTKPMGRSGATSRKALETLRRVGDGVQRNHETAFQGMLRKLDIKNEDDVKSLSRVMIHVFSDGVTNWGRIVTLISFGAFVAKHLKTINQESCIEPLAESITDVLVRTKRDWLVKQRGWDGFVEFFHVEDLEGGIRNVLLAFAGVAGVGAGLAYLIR

Bcl-xL/Bcl-2-like protein 11, sequence (Q07817 whole entry): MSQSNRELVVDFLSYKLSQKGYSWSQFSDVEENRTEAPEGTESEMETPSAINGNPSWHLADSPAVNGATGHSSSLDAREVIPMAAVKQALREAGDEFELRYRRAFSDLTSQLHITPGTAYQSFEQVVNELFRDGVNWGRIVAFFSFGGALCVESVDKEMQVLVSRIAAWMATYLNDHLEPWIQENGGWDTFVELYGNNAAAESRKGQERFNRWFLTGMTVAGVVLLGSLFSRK
Bcl-xL/Bcl-2-like protein 11, sequence (O43521 whole entry, further chain): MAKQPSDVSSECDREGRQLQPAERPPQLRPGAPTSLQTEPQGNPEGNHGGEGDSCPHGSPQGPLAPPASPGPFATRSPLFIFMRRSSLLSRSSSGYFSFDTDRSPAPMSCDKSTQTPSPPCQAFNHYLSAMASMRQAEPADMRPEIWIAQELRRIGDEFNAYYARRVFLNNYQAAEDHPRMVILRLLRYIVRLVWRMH
BCL2/BID, sequence (P10415 whole entry): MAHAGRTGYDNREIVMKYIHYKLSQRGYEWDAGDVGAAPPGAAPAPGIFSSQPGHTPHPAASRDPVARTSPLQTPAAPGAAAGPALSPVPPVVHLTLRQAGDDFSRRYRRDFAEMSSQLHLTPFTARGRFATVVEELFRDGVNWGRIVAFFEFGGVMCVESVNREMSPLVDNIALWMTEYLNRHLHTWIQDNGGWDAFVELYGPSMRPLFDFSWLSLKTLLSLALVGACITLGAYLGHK
BCL2/BID, sequence (P55957 whole entry, further chain): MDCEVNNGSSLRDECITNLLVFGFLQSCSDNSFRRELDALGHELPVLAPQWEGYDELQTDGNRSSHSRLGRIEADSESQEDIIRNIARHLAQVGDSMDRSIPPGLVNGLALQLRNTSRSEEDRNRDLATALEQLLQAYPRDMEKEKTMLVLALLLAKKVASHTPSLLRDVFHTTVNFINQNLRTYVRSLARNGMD
Induced myeloid leukemia cell differentiation protein Mcl-1/BH3-interacting domain death agonist, sequence (Q07820 whole entry, the tested form may be a part): as the sequence (Q07820 whole entry) above
Induced myeloid leukemia cell differentiation protein Mcl-1/BH3-interacting domain death agonist, sequence (P55957 whole entry, further chain, the tested form may be a part): as the sequence (P55957 whole entry, further chain) above
MCL1-BAK1 complex, sequence (Q07820 whole entry, the tested form may be a part): as the sequence (Q07820 whole entry) above
MCL1-BAK1 complex, sequence (Q16611 whole entry, further chain, the tested form may be a part): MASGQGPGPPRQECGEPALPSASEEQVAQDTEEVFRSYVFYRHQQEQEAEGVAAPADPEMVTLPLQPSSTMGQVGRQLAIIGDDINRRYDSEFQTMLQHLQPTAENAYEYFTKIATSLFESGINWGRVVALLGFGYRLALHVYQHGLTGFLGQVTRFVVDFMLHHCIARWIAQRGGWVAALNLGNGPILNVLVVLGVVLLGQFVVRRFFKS
BCL2/BCL2L11, sequence (P10415 whole entry): as the sequence (P10415 whole entry) above
BCL2/BCL2L11, sequence (O43521 whole entry, further chain): as the sequence (O43521 whole entry, further chain) above
Induced myeloid leukemia cell differentiation protein Mcl-1/Bcl-2-like protein 11, sequence (Q07820 whole entry): as the sequence (Q07820 whole entry) above
Induced myeloid leukemia cell differentiation protein Mcl-1/Bcl-2-like protein 11, sequence (O43521 whole entry, further chain): as the sequence (O43521 whole entry, further chain) above

Question: For Cc1ccc(-c2ccc(C(=O)O)c(NS(=O)(=O)c3ccccc3)c2)c2ccccc12, which IC50 [1] is on record?
Answer: 400 nM

Question: With N#CC1=C(NCCC(=O)CCCCC(=O)NCCOCCOCCNc2cccc3c2C(=O)N(C2CCC(=O)NC2=O)C3=O)c2ccc(Sc3ccc(Br)cc3)c3cccc(c23)C1=O (centres undefined) as the compound, how does the IC50 [2] read?
Answer: 11800 nM

Question: What about the IC50 [3] of the same compound?
Answer: 4940 nM

Question: For CC(C)COc1nc(Oc2ccccc2)ccc1C(=O)O, which Ki [4] is on record?
Answer: 261000 nM

Question: With CCOC(=O)C1=CN=c2s/c(=C\c3cn(Cc4ccccc4)c4ccccc34)c(=O)n2[C@H]1c1cccc(C(C)=O)c1 as the compound, how does the Ki [5] read?
Answer: 740 nM

Question: What about the Ki [6] of the same compound?
Answer: 340 nM

Question: And the Ki [7]?
Answer: 590 nM

Question: With Cc1c(-c2cccc3c(CCCOc4cccc5ccccc45)c(C(=O)O)[nH]c23)c(COc2ccc(B(O)O)cc2)nn1C as the compound, how does the IC50 [8] read?
Answer: > 11000 nM

Question: Which results are given for COC(=O)C1=CN=c2s/c(=C\c3cn(Cc4ccccc4)c4ccccc34)c(=O)n2[C@H]1c1ccc(C(C)=O)cc1?
Answer: Ki [5]: 320 nM; Ki [6]: 280 nM; Ki [7]: 940 nM

Question: For Cc1cc(OCCCS(=O)(=O)N2CC(C(=O)O)Cc3ccccc32)cc(C)c1Cl (centres undefined), which Ki [4] is on record?
Answer: 7770 nM

Question: What does the source list for CCOC(=O)C1=CN=c2s/c(=C\c3cn(Cc4ccccc4)c4ccccc34)c(=O)n2[C@@H]1c1cccc(C(C)=O)c1?
Answer: Ki [5]: 290 nM; Ki [6]: 290 nM; Ki [7]: 540 nM

Question: With C=C(c1ccc(S(=O)(=O)Nc2cc(-c3ccc(C)c4ccccc34)ccc2C(=O)O)cc1)C(C)C as the compound, how does the IC50 [1] read?
Answer: 80 nM

Question: With CC(=O)c1cc(OCc2nn(C)c(C)c2-c2cccc3c(CCCOc4cccc5ccccc45)c(C(=O)O)[nH]c23)ccc1B(O)O as the compound, how does the IC50 [8] read?
Answer: 170 nM

Question: For Cc1ccc(-c2ccc(C(=O)O)c(NS(=O)(=O)c3ccc(Oc4ccccc4)cc3)c2)c2ccccc12, which IC50 [1] is on record?
Answer: 500 nM

Question: For CC1=C[C@@H](/C=C(\C)c2ccc(C(=O)O)cc2)[C@]2(C(=O)O)C=C[C@@H](CCOC(=O)c3ccc(Oc4cccnc4)cc3)C[C@@H]2C1, which Ki [5] is on record?
Answer: 106 nM

Question: What about the Ki [4] of the same compound?
Answer: 153 nM

Question: For Cc1ccc(-c2ccc(C(=O)O)c(NS(=O)(=O)c3ccc(OCCn4cccn4)cc3)c2)c2ccccc12, which IC50 [1] is on record?
Answer: 30 nM

Question: For CCc1nn(C)c(CC)c1-c1cccc2c(CCCOc3cccc4ccccc34)c(C(=O)O)n(CCN3CCOCC3)c12, which IC50 [8] is on record?
Answer: 350 nM

Question: With N#CC1=C(NCCC(=O)CCCCC(=O)NCCCCCNc2cccc3c2C(=O)N(C2CCC(=O)NC2=O)C3=O)c2ccc(Sc3ccc(Br)cc3)c3cccc(c23)C1=O (centres undefined) as the compound, how does the IC50 [2] read?
Answer: 780 nM

Question: And the IC50 [3]?
Answer: 540 nM

Question: What does the source list for N#CC1=C(C#N)c2ccc(N3CCSCC3)c3cccc(c23)C1=O?
Answer: Ki [5]: 58 nM; Ki [7]: 310 nM

Question: What does the source list for O=C(Nc1ccccc1)C1=CN=c2s/c(=C\c3cn(Cc4ccccc4)c4ccccc34)c(=O)n2[C@@H]1c1ccccc1?
Answer: Ki [5]: 360 nM; Ki [6]: 830 nM; Ki [7]: 1100 nM

Question: With COC(=O)C1=CN=c2s/c(=C\c3cn(Cc4ccccc4)c4ccccc34)c(=O)n2[C@@H]1c1ccc(C(C)=O)cc1 as the compound, how does the Ki [5] read?
Answer: 420 nM

Question: And the Ki [6]?
Answer: 550 nM

Question: What about the Ki [7] of the same compound?
Answer: 1000 nM

Question: For O=C(Nc1ccccc1)C1=CN=c2s/c(=C\c3cn(Cc4ccccc4)c4ccccc34)c(=O)n2[C@H]1c1ccccc1, which Ki [5] is on record?
Answer: 2200 nM

Question: What about the Ki [6] of the same compound?
Answer: 1100 nM

Question: And the Ki [7]?
Answer: 810 nM

Question: With Cc1c(-c2cccc3c(CCCOc4cccc5ccccc45)c(C(=O)O)n(C)c23)c(COc2ccc(B(O)O)c(C=O)c2)nn1C as the compound, how does the IC50 [8] read?
Answer: 75 nM

Question: For CCOC(=O)C1=C(C)N=c2s/c(=C\c3cn(Cc4ccc(-c5ccccc5)cc4)c4ccccc34)c(=O)n2C1c1ccccc1 (centres undefined), which Ki [9] is on record?
Answer: 200 nM

Question: Which IC50 [1] does the source give for Cc1ccc(-c2ccc(C(=O)O)c(NS(=O)(=O)c3ccc(OCCCN4CCOCC4)cc3)c2)c2ccccc12 here?
Answer: 60 nM

Question: Which IC50 [8] does the source give for Cc1c(-c2cccc3c(CCCOc4cccc5ccccc45)c(C(=O)O)[nH]c23)c(COc2ccc(B(O)O)c(C=O)c2)nn1C here?
Answer: 460 nM
